One series concerns flies. The series is described as follows: Comparative investigations with known reference synergists on flies treated with carbofuran. Conditions: flies treated with carbofuran and 1000 ng of the synergist. The class given is in vivo. The text has this: These SR50 ratios were compared to those of the new compounds prepared by us.
Series [1] concerns cotton bollworm (Helicoverpa armigera). Nature of the series: Synergistic activity on cotton bollworm following topical application. The note with it: in vivo. The method, then: Investigation of Synergistic Activity on Cotton Bollworm (Helicoverpa armigera) Following Topical Application
Treatment was performed similarity as described in Example 1. but L2 stadium grubs of cotton bollworms (Helicoverpa armigera) were treated as test animals. From the 24 hour dose--mortality data the LD50 (ng/grub) values were determined using probit analysis. None of the synergists acted at the applied 1000 ng/grub dose. Synergist ratio was calculated as the quotient of the LD50 values of carbofuran administered alone, and with the synergist. The experiments were performed in 2-4 replica.

For series [2], the system named is house fly (Musca domestica). Conditions: in vivo, topical_or_ocular, 1440 min. As for the experimental part:
Investigation of Synergistic Activity on House Fly (Musca domestica) Following Topical Application
In two parallel experiments 10 female. 2-4 day old house flies were treated on the vental side of their thorax with 0.2 μl of the test solution, with the help of Hamilton MicroLab P microdispenser. Beside fixed synergist dose of 1000 ng/fly the animals were treated with carbofuran at a dose of 20 ng/fly. For solvent cellosolve was used. Selection and counting of the flies were performed under the action of CO2. After treatment the flies were kept in plastic cups covered with tulle. Mortality after 24 hours was expressed in %.

Series [3] deals with house fly (Musca domestica). The series is described as follows: Effect of the active ingredient:synergist ratio on the synergistic activity (flies). As for the experimental part: Effect of the Active Ingredient:Synergist Ratio on the Synergistic Activity
Treatment was performed as described in Example 1. using Hamilton MicroLab P microdispenser. In two parallel experiments 10 female -3 day old flies were treated on the ventral side of their thorax with 0.2 μl test solution. Beside 1000-400-200-80 ng/fly fixed doses of the synergist they were treated with constant 20 ng/fly CARBOFURAN®. Selection and counting of the flies were performed under the action of CO2. After treatment the flies were kept in plastic cups covered with tulle. After 24 hours mortality % was recorded. Depending on the results the experiments were performed in 2-4 replica.

Series [4] has as its system resistant house fly, INSEL strain. Nature of the series: Synergistic activity on resistant house fly, INSEL strain. The class given is in vivo, Musca domestica. The note with it: active ingredient alone. The method, then:
Investigation of Synergistic Activity on Resistant House Fly (Musca domestica) Populations
Investigation was carried out as described in biological Example 1. LD50 values and synergist ratios were determined as given in Example 2.

Setting [5] is: carbofuran 20 ng/fly + synergist 80 ng/fly.
Setting [6] is: carbofuran 20 ng/fly + synergist 200 ng/fly.
The mark [7] stands for this setting: carbofuran 20 ng/fly + synergist 400 ng/fly.
Where [8] appears, read: house fly, in vivo, topical_or_ocular.

For the compound “5-[(2-propynyl)-methyl]-1,3-benzodioxole”, the “Synergist ratio SR50” value in the series on flies came out at 10.60.

As to `C#CCON=C(C)c1cccc2ccccc12` [1-acetonaphthon-oxim (2-propynyl) ether], the “Synergist ratio SR50” value with flies was determined as 7.79.

For the compound `C#CCOc1cccc2ccccc12` [1-naphthyl 2-propargyl ether], the “Synergist ratio SR50” value in the series with flies turned out to be 6.52.

As to `C#CCCOc1cccc2ccccc12` [1-naphthyl 3-butynyl ether], the “Synergist ratio SR50” value in the series with flies is 7.95.

Take `C#CCOCc1cccc2ccccc12` [1-naphthylmethyl 2-propynyl ether]: in the series on flies, the “Synergist ratio SR50” value is 5.28.

As for `C#CCOc1cccc2c1OC(C)(C)C2` [2,3-dihydro-2,2-dimethyl-7-(2-propynyloxy)benzofurane], the “Synergist ratio SR50” value in the series on flies is given as 1.8.

For the compound `C#CCOCC1COc2ccccc2O1` (stereo not shown) [2-[(2-propynyloxy)methyl]-1,4-benzodioxane], the “Synergist ratio SR50” value with flies was determined as 5.58.

Take `CC#CCOc1ccc2ccccc2c1` [2-naphthyl 2-butynyl ether]: in the series with flies, the “Synergist ratio SR50” value was found to be 7.72.

Take `CC#CCCOc1ccc2ccccc2c1` [2-naphthyl 3-pentynyl ether]: the “Synergist ratio SR50” value in the series with flies came to 9.97.

For `C#CCOC(=O)c1cccc2ccccc12` [2-propynyll-naphthyl-carboxylate], in the series on flies, the “Synergist ratio SR50” value is on record as 4.11.

For the compound `C#CCOCc1c(Cl)cccc1Cl` [(2,6-dichlorophenyl)methyl 2-propynyl ether], the “Synergist ratio SR50” value in the series on flies stood at 20.92.

In the case of `C#CCOCc1ccc(OC)c(OC)c1` [(2-propynyloxy-methyl)-3,4-dimethoxy-benzene], the “Synergist ratio SR50” value in the series with flies is listed as 6.58.

Consider `C#CCN(C)C(C)c1ccc2ccccc2c1` (stereo not drawn) [Compound 251, N-α-dimethyl-N-2-propynyl-β-naphthyl-methylamine], for which, in series [1], the Synergist ratio is given as more than 5. In addition, in series [2], the mortality % was found to be 37%.

Take `C#CCOC(C)c1ccc2ccccc2c1` (stereo not shown) [Compound 256, 2-[1-(2-propynyloxy)-ethyl]-naphthalene]: in series [1], the Synergist ratio was more than 5. In series [2], the mortality % amounted to 32%.

Take `CC#CCOC(C)c1cccc2ccccc12` (stereo not shown) [Compound 292, 1-[1-(2-butynyloxy)-ethyl]-naphthalene]: in series [1], the Synergist ratio was more than 5. Moreover, in series [2], the mortality % is given as 72%.

Regarding `CC#CCOC(C)c1ccc2ccccc2c1` (stereo not shown) [Compound 293, 2-[1-(2-butynyloxy)-ethyl]-naphthalene], in series [1], the Synergist ratio is on record as more than 5. Besides, the mortality % in series [2] worked out at 45%.

With `CC#CCO[C@@H](C)c1cccc2ccccc12` [Compound 330, S-(-)-1-[1-(2-butynyloxy)-ethyl]-naphthalene], the Synergist ratio in series [1] is recorded as more than 5. Moreover, in series [2], the mortality % came to 62%.

For the compound `CC#CCO[C@H](C)c1cccc2ccccc12` [Compound 331, R-(+)-1-[1-(2-butynyloxy)-ethyl]-naphthalene], the Synergist ratio in series [1] was more than 5. Moreover, the mortality % in series [2] came out at 72%.

As for `C#CCCOc1cccc2c1OC(C)(C)C2` [Compound 377, 2,3-dihydro, 2,2-dimethyl-7-(3-butynyloxy)-benzofuran], in series [1], the Synergist ratio was more than 5. The mortality % in series [2] amounted to 57%.

Turning to `C#CC(C)OCc1cccc2ccccc12` (stereo not shown) [Compound 389], the Synergist ratio in series [1] is more than 5. Moreover, the mortality % in series [2] was 27%.

As for `CC#CCCOc1cccc2c1OC(C)(C)C2` [Compound 418, 2,3-dihydro-2,2-dimethyl-7-(3-pentynyloxy)-benzofuran], the Synergist ratio in series [1] is listed as more than 5. The “Synergist ratio SR50” value with flies came to 20.5. In series [2], the mortality % is recorded as 63%.

As to `CC#CCOC(CC)c1cccc2ccccc12` (stereo not shown) [Compound 454, 1-[1-(2-butynyloxy)-propyl]-naphthalene], in series [1], the Synergist ratio is on record as more than 5. Moreover, the mortality % in series [2] stood at 75%. For the same compound, the “24 hour mortality (%)” value in series [3] (setting [5]) is 40%; in series [3] (setting [6]) it was 45%; in series [3] (setting [7]), 60%; in series [3] (setting [8]), 75%.

Take `CC#CCO[C@H](C)c1ccc2ccccc2c1` [Compound 455, R-(+)-2-[1-(2-butynyloxy)-ethyl]-naphthalene]: in series [1], the Synergist ratio is reported as more than 5. In series [2], the mortality % was found to be 70%. The “24 hour mortality (%)” value came out at 25% in series [3] (setting [5]), 48% in series [3] (setting [6]), 63% in series [3] (setting [7]) and 77% in series [3] (setting [8]).

In the case of `CC#CCO[C@@H](C)c1ccc2ccccc2c1` [Compound 456, S-(-)-2-[1-(2-butynyloxy)-ethyl]-naphthalene], the Synergist ratio in series [1] was more than 5. For the same compound, in series [2], the mortality % was 47%.

On to `CC#CCOC(c1cccc2ccccc12)C(C)C` (stereo not shown) [Compound 472, 1-[2-methyl-1-(2-butynyloxy)-propyl]-naphthalene], for which, in series [1], the Synergist ratio is listed as more than 5. Further, the mortality % in series [2] worked out at 68%.

Regarding `C#CCO[C@@H](C)c1ccc2ccccc2c1` [Compound 474, S-(-)-2-[1-(2-propynyloxy)-ethyl]-naphthalene], in series [1], the Synergist ratio is more than 5. The mortality % in series [2] is listed as 50%.

In the case of `C#CCO[C@H](C)c1ccc2ccccc2c1` [Compound 475, R-(+)-2-1[1-(2-propynyloxy)-ethyl]-naphthalene], the Synergist ratio in series [1] was more than 5. Further, in series [2], the mortality % was 47%.

`CC#CCOC1CCc2ccccc21` (stereo not shown) [Compound 479, 1-(2-Butynyloxy)-indane]: the Synergist ratio in series [1] was more than 5. Also, the mortality % in series [2] was 58%.

For the compound `CC#CCOC1CCCc2ccccc21` (stereo not shown) [Compound 498, 1-(2-Butynyloxy)-1,2,3,4-tetrahydro-naphthalene], the Synergist ratio in series [1] is recorded as more than 5. Moreover, the mortality % in series [2] turned out to be 70%.

As for `C#CCOC(=O)c1ccc2c(c1)OCO2` [Compound 501, 2-Propynyl 1,3-benzodioxol-5-carboxylate], the Synergist ratio in series [1] is more than 5. The mortality % in series [2] came out at 53%. The “24 hour mortality (%)” value in series [3] (setting [5]) is listed as 60%; in series [3] (setting [6]), 75%; in series [3] (setting [7]) it was 80%; in series [3] (setting [8]), 80%.

In the case of `CC#CCNC(=O)c1ccc2c(c1)OCO2` [Compound 523, N-(2-butynyl) 3,4-methylene-dioxy-benzamide], in series [1], the Synergist ratio is on record as more than 5. In series [2], the mortality % stood at 17%.

Consider `CC#CCNC(=O)c1ccc2ccccc2c1` [Compound 535, N-(2-Butynyl)-2-naphthamide], for which, in series [1], the Synergist ratio was more than 5. The mortality % in series [2] is 27%.

Consider `CC#CCN1C(=O)c2ccccc2C1=O` [Compound 537, N-(But-2-ynyl)-phthalimide], for which the Synergist ratio in series [1] is more than 5.

Turning to `CC#CCOCC1Cc2ccccc2O1` (stereo not shown) [Compound 539, 2-(2-butynyloxy-methyl)-2,3-dihydro-benzofuran], the Synergist ratio in series [1] is more than 5. Also, the mortality % in series [2] is recorded as 48%.

On to `CC#CCCOc1ccc([N+](=O)[O-])cc1` [Compound 540, 1-(3-pentynyloxy)-4-nitro-benzene], for which the Synergist ratio in series [1] is more than 5. Moreover, in series [2], the mortality % was found to be 60%.

On to `C#CCNC(=O)c1cccc2ccccc12` [Compound 541, N-(2-Propynyl)-1-naphthamide], for which the Synergist ratio in series [1] is on record as more than 5. In addition, in series [2], the mortality % is recorded as 46%.

Turning to `CC#CCNC(=O)c1cccc2ccccc12` [Compound 542, N-(2-Butynyl)-1-naphthamide], the Synergist ratio in series [1] is more than 5. Besides, the mortality % in series [2] was found to be 42%.

Take `C#CCCOc1ccc([N+](=O)[O-])cc1` [Compound 547, 1-(3-butynyloxy)-4-nitro-benzene]: in series [2], the mortality % came out at 47%.

`CC#CCOC(c1ccc2c(c1)OCO2)C1CCCCC1` (stereo not shown) [Compound 554, 5-[(But-2-ynyloxy)-cyclohexyl-methyl]-1,3-benzodioxole]: the Synergist ratio in series [1] is more than 5. The mortality % in series [2] came to 58%.

For the compound `CC#CCOC(c1ccccc1)c1ccc2c(c1)OCO2` (stereo not shown) [Compound 555, 5-[(But-2-ynyloxy)-phenyl-methyl]-1,3-benzodioxole], in series [1], the Synergist ratio is reported as more than 5. For the same compound, in series [2], the mortality % is 90%.

Consider `CC#CCON=C(C)c1ccc(OC)c(OC)c1` [Compound 572, 3,4-Dimethoxy-acetophenonoxym-(2-butynyl)-ether], for which the Synergist ratio in series [1] is listed as more than 5. Also, the mortality % in series [2] is 55%.

With `C=CCC1=C(C)[C@@H](OC(=O)[C@@H]2[C@@H](C=C(C)C)C2(C)C)CC1=O` [ESBIOL, reference compound], in series [4], the LD50 was 10653 ng/fly.

The values above are taken from US6277867A, “Pesticide compounds, compositions and process for the preparation thereof” (priority 1995, dated 2001).
